Assay results: ChEMBL document CHEMBL1145498, “A systematic interaction map of validated kinase inhibitors with Ser/Thr kinases” (Proc Natl Acad Sci U S A, 2007)

target: Dual specificity mitogen-activated protein kinase kinase 2 (Homo sapiens, UniProt P36507)

Row | ΔTm | SMILES
1 | 0.5 °C | CCN1/C(=C/C(C)=O)Sc2ccc(OC)cc21
2 | 0.4 °C | Cc1ccc(NC(=O)c2cccc(N(C)C)c2)cc1NC(=O)c1ccc(O)cc1
3 | 5.3 °C | O=C1NC(=O)c2c1c1c3ccccc3[nH]c1n1cncc21 [ISOGRANULATIMIDE]

target: Calcium/calmodulin-dependent protein kinase type II subunit delta (Homo sapiens) (UniProt Q13557)
Sequence (Q13557 whole entry): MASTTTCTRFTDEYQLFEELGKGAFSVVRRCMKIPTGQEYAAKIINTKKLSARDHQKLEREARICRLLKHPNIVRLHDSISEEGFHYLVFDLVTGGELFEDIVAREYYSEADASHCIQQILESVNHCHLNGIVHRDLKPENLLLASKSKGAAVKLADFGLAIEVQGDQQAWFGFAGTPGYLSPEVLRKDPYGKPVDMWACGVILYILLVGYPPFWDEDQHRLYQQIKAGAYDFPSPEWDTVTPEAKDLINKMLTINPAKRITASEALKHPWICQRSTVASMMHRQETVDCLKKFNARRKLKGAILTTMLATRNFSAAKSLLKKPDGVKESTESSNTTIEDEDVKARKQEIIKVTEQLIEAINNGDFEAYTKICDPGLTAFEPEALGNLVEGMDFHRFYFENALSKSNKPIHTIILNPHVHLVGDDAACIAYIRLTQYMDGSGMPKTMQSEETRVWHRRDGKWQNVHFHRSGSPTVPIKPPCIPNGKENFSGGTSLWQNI

Row | ΔTm | SMILES
4 | -0.6 °C | CCN1/C(=C/C(C)=O)Sc2ccc(OC)cc21
5 | 0 °C | Cc1ccc(NC(=O)c2cccc(N(C)C)c2)cc1NC(=O)c1ccc(O)cc1
6 | 1 °C | O=C1NC(=O)c2c1c1c3ccccc3[nH]c1n1cncc21 [ISOGRANULATIMIDE]

target: Serine/threonine-protein kinase PLK1 (Homo sapiens) (UniProt P53350)
Sequence (P53350 whole entry): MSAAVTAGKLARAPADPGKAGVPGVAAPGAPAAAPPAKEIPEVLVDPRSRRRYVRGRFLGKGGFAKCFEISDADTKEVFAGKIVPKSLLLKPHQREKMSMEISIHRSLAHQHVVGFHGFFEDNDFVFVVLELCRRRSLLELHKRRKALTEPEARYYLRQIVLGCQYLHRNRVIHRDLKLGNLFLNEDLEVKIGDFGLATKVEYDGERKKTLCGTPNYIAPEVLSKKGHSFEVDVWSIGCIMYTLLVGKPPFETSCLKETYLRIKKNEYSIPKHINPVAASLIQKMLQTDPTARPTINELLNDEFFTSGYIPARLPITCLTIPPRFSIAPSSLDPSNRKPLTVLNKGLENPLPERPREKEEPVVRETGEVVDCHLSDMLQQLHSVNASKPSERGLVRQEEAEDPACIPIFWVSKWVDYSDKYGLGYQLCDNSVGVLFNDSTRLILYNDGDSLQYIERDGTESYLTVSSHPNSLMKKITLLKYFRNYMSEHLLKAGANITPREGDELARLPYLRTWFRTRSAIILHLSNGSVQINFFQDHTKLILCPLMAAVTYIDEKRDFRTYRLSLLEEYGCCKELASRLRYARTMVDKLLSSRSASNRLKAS

Row | ΔTm | SMILES
7 | 0.3 °C | CCN1/C(=C/C(C)=O)Sc2ccc(OC)cc21
8 | 0.9 °C | Cc1ccc(NC(=O)c2cccc(N(C)C)c2)cc1NC(=O)c1ccc(O)cc1
9 | 9.3 °C | O=C1NC(=O)c2c1c1c3ccccc3[nH]c1n1cncc21 [ISOGRANULATIMIDE]

target: T1, Myotonin-protein kinase (Homo sapiens) (UniProt Q09013)
T1 sequence (whole entry): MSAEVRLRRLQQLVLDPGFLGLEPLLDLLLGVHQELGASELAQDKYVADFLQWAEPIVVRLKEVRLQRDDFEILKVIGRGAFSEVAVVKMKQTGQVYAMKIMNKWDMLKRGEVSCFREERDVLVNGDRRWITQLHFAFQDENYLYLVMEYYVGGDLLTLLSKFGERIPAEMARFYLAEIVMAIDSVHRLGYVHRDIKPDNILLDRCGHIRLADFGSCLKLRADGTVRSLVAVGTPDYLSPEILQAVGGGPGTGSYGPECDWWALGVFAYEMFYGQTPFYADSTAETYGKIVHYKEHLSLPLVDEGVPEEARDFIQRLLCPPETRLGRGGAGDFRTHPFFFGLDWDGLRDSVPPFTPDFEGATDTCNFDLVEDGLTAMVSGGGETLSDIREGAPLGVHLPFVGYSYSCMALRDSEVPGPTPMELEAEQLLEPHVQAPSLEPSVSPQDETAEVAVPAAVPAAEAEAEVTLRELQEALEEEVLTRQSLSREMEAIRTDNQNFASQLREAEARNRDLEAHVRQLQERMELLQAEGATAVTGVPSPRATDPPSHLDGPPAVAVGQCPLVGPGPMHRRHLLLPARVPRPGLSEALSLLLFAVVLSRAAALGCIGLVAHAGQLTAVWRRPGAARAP

Row | ΔTm | SMILES
10 | 2.5 °C | CCN1/C(=C/C(C)=O)Sc2ccc(OC)cc21
11 | -0.8 °C | Cc1ccc(NC(=O)c2cccc(N(C)C)c2)cc1NC(=O)c1ccc(O)cc1
12 | 2.2 °C | O=C1NC(=O)c2c1c1c3ccccc3[nH]c1n1cncc21 [ISOGRANULATIMIDE]

target: Calcium/calmodulin-dependent protein kinase type 1G (Homo sapiens) (UniProt Q96NX5)

Row | ΔTm | SMILES
13 | -0.5 °C | CCN1/C(=C/C(C)=O)Sc2ccc(OC)cc21
14 | 0.4 °C | Cc1ccc(NC(=O)c2cccc(N(C)C)c2)cc1NC(=O)c1ccc(O)cc1
15 | 3.4 °C | O=C1NC(=O)c2c1c1c3ccccc3[nH]c1n1cncc21 [ISOGRANULATIMIDE]

target: Calcium/calmodulin-dependent protein kinase type II subunit gamma (Homo sapiens) (UniProt Q13555)
Sequence (Q13555 whole entry): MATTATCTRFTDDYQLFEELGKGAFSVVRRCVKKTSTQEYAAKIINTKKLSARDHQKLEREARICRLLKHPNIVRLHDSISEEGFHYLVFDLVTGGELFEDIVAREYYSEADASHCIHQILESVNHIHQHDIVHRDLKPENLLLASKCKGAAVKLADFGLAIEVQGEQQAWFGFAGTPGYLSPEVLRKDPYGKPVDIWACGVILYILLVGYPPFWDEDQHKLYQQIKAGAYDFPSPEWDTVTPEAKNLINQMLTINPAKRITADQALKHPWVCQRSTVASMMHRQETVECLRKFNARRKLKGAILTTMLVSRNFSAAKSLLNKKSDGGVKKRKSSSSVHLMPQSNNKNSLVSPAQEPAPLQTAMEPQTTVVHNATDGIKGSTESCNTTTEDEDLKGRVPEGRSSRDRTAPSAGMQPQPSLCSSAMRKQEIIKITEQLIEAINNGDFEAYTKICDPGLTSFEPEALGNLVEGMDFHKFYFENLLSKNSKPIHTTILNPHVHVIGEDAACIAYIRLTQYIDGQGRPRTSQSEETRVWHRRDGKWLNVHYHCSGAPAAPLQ

Row | ΔTm | SMILES
16 | 0.1 °C | CCN1/C(=C/C(C)=O)Sc2ccc(OC)cc21
17 | 0.1 °C | Cc1ccc(NC(=O)c2cccc(N(C)C)c2)cc1NC(=O)c1ccc(O)cc1
18 | 2.5 °C | O=C1NC(=O)c2c1c1c3ccccc3[nH]c1n1cncc21 [ISOGRANULATIMIDE]

target: T2, Dual specificity mitogen-activated protein kinase kinase 6 (Homo sapiens) (UniProt P52564)
T2 sequence (whole entry): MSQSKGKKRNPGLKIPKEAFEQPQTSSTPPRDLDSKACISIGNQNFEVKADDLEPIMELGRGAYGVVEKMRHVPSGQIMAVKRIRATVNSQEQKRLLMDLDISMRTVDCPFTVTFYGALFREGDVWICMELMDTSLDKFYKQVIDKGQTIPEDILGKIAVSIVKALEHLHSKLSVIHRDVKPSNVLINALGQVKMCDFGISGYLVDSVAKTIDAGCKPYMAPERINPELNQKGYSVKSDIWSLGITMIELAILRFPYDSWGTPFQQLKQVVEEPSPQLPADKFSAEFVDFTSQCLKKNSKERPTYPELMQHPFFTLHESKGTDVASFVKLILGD

Row | ΔTm | SMILES
19 | 0.3 °C | CCN1/C(=C/C(C)=O)Sc2ccc(OC)cc21
20 | 0 °C | Cc1ccc(NC(=O)c2cccc(N(C)C)c2)cc1NC(=O)c1ccc(O)cc1
21 | 14.6 °C | O=C1NC(=O)c2c1c1c3ccccc3[nH]c1n1cncc21 [ISOGRANULATIMIDE]

target: Dual specificity protein kinase CLK3 (Homo sapiens) (UniProt P49761)

Row | ΔTm | SMILES
22 | 0 °C | Cc1ccc(NC(=O)c2cccc(N(C)C)c2)cc1NC(=O)c1ccc(O)cc1
23 | 2.3 °C | O=C1NC(=O)c2c1c1c3ccccc3[nH]c1n1cncc21 [ISOGRANULATIMIDE]

target: Dual specificity protein kinase CLK2 (Homo sapiens) (UniProt P49760)

Row | ΔTm | SMILES
24 | 4.1 °C | CCN1/C(=C/C(C)=O)Sc2ccc(OC)cc21
25 | 0.2 °C | Cc1ccc(NC(=O)c2cccc(N(C)C)c2)cc1NC(=O)c1ccc(O)cc1
26 | 4.1 °C | O=C1NC(=O)c2c1c1c3ccccc3[nH]c1n1cncc21 [ISOGRANULATIMIDE]

target: Calcium/calmodulin-dependent protein kinase type II subunit alpha (Homo sapiens) (UniProt Q9UQM7)

Row | ΔTm | SMILES
27 | -0.1 °C | CCN1/C(=C/C(C)=O)Sc2ccc(OC)cc21
28 | 0.1 °C | Cc1ccc(NC(=O)c2cccc(N(C)C)c2)cc1NC(=O)c1ccc(O)cc1
29 | 3.6 °C | O=C1NC(=O)c2c1c1c3ccccc3[nH]c1n1cncc21 [ISOGRANULATIMIDE]

target: Mitogen-activated protein kinase 6 (Homo sapiens) (UniProt Q16659)
Sequence (Q16659 whole entry): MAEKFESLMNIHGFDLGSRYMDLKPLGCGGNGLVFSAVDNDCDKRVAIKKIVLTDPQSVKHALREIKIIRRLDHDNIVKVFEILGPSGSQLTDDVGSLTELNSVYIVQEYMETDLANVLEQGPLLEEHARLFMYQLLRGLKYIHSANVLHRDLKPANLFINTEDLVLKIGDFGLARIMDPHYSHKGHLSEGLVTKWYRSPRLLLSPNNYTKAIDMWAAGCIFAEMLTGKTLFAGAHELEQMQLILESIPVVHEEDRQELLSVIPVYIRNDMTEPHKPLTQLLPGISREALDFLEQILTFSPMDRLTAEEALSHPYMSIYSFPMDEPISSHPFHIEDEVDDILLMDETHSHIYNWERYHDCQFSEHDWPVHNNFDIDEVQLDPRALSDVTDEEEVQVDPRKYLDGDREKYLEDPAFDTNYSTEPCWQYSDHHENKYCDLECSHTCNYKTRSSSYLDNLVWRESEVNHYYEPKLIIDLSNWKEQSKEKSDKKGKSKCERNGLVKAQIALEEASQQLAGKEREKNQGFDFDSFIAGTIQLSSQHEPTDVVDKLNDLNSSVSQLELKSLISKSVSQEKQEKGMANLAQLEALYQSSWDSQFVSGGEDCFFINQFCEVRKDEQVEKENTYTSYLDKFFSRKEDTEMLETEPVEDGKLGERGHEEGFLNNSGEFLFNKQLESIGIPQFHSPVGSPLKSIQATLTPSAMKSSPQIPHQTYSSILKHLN

Row | ΔTm | SMILES
30 | 0 °C | CCN1/C(=C/C(C)=O)Sc2ccc(OC)cc21
31 | 0.4 °C | Cc1ccc(NC(=O)c2cccc(N(C)C)c2)cc1NC(=O)c1ccc(O)cc1
32 | 1.2 °C | O=C1NC(=O)c2c1c1c3ccccc3[nH]c1n1cncc21 [ISOGRANULATIMIDE]

target: Casein kinase I isoform gamma-1 (Homo sapiens) (UniProt Q9HCP0)
Sequence (Q9HCP0 whole entry, looked up, canonical isoform): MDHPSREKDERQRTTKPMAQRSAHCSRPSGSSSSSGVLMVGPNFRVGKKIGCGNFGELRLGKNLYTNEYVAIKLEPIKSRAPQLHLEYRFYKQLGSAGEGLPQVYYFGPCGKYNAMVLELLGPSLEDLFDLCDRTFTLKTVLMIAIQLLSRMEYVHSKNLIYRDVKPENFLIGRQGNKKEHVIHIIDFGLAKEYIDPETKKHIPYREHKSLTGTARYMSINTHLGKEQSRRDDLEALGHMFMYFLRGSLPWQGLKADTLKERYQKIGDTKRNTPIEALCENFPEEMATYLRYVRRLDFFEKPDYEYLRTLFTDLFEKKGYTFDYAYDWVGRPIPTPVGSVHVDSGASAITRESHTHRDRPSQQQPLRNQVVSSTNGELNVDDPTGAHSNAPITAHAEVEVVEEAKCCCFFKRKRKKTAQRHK

Row | ΔTm | SMILES
33 | 2.5 °C | CCN1/C(=C/C(C)=O)Sc2ccc(OC)cc21
34 | -0.1 °C | Cc1ccc(NC(=O)c2cccc(N(C)C)c2)cc1NC(=O)c1ccc(O)cc1
35 | 4.3 °C | O=C1NC(=O)c2c1c1c3ccccc3[nH]c1n1cncc21 [ISOGRANULATIMIDE]

target: TRAF2 and NCK-interacting protein kinase (Homo sapiens) (UniProt Q9UKE5)
Sequence (Q9UKE5 whole entry, looked up): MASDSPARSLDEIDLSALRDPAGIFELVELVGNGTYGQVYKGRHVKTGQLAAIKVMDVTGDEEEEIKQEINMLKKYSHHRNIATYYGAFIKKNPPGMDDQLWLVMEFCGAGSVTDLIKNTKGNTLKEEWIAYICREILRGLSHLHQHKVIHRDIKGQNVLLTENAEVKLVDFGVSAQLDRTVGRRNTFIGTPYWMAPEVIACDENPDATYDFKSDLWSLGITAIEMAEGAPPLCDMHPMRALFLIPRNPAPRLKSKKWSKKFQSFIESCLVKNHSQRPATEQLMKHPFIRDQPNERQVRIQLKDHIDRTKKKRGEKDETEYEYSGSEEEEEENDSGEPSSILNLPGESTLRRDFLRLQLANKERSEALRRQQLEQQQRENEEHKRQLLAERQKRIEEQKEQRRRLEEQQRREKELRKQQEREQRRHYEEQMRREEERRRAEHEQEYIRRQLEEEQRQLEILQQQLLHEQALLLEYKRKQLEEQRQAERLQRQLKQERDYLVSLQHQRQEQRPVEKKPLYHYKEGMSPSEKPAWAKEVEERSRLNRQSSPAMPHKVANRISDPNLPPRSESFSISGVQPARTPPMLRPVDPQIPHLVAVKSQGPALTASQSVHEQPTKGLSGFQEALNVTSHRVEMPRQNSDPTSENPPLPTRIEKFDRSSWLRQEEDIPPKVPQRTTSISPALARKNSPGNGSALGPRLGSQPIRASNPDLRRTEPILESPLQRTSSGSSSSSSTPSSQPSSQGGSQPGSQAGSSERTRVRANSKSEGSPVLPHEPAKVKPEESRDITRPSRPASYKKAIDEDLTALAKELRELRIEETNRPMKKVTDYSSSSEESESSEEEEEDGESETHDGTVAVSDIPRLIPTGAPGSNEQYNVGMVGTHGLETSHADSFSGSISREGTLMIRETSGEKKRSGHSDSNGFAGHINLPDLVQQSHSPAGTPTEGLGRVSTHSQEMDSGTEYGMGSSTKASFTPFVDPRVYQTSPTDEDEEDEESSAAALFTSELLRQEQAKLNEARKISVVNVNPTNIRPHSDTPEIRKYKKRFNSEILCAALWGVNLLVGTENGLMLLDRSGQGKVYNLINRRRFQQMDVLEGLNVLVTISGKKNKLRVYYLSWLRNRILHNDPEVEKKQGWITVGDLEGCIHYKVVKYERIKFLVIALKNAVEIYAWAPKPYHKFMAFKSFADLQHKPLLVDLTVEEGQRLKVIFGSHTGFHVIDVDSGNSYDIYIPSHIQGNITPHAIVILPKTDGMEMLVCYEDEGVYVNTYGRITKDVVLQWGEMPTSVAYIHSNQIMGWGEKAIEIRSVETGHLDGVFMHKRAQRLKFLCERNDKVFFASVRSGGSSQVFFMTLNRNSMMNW

Row | ΔTm | SMILES
36 | 0.1 °C | CCN1/C(=C/C(C)=O)Sc2ccc(OC)cc21
37 | 0.1 °C | Cc1ccc(NC(=O)c2cccc(N(C)C)c2)cc1NC(=O)c1ccc(O)cc1
38 | 0 °C | O=C1NC(=O)c2c1c1c3ccccc3[nH]c1n1cncc21 [ISOGRANULATIMIDE]

target: Calcium/calmodulin-dependent protein kinase type II subunit beta (Homo sapiens) (UniProt Q13554)

Row | ΔTm | SMILES
39 | 0.3 °C | CCN1/C(=C/C(C)=O)Sc2ccc(OC)cc21
40 | 0.4 °C | Cc1ccc(NC(=O)c2cccc(N(C)C)c2)cc1NC(=O)c1ccc(O)cc1
41 | 1.2 °C | O=C1NC(=O)c2c1c1c3ccccc3[nH]c1n1cncc21 [ISOGRANULATIMIDE]

target: Serine/threonine-protein kinase OSR1 (Homo sapiens) (UniProt O95747)
Sequence (O95747 2-527 limits assumed): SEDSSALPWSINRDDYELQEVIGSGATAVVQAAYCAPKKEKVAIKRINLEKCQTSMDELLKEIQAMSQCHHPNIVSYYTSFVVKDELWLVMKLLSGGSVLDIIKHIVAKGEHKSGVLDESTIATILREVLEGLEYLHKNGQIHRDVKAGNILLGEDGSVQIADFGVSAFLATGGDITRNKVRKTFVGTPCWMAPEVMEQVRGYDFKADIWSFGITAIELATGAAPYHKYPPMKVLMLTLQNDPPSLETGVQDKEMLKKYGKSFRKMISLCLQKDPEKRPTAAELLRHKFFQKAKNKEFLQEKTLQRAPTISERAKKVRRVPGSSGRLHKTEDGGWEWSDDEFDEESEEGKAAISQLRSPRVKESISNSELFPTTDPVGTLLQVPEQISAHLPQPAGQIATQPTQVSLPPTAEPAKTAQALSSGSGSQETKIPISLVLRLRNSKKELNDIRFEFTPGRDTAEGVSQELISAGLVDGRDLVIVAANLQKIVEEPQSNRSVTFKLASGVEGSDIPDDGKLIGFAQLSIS

Row | ΔTm | SMILES
42 | 0.1 °C | CCN1/C(=C/C(C)=O)Sc2ccc(OC)cc21
43 | 2 °C | Cc1ccc(NC(=O)c2cccc(N(C)C)c2)cc1NC(=O)c1ccc(O)cc1
44 | 1.4 °C | O=C1NC(=O)c2c1c1c3ccccc3[nH]c1n1cncc21 [ISOGRANULATIMIDE]

target: Death-associated protein kinase 3 (Homo sapiens) (UniProt O43293)

Row | SMILES | ΔTm
45 | CCN1/C(=C/C(C)=O)Sc2ccc(OC)cc21 | 0.9 °C
46 | Cc1ccc(NC(=O)c2cccc(N(C)C)c2)cc1NC(=O)c1ccc(O)cc1 | -0.4 °C
47 | O=C1NC(=O)c2c1c1c3ccccc3[nH]c1n1cncc21 [ISOGRANULATIMIDE] | 5.3 °C

target: T3, Serine/threonine-protein kinase VRK1 (Homo sapiens) (UniProt Q99986)
T3 sequence (whole entry): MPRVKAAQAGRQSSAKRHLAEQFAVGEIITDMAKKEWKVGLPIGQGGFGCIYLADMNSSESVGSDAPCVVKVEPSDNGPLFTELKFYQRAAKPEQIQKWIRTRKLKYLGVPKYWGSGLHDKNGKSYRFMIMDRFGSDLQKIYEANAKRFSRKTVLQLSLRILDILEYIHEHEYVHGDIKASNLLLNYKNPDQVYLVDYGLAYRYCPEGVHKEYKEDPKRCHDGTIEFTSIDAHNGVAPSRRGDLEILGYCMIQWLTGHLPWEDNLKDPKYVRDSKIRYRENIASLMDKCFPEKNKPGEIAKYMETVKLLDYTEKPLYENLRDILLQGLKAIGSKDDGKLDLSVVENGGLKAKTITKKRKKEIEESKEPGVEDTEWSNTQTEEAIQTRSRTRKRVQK

Row | ΔTm | SMILES
48 | 0.3 °C | CCN1/C(=C/C(C)=O)Sc2ccc(OC)cc21
49 | -0.3 °C | Cc1ccc(NC(=O)c2cccc(N(C)C)c2)cc1NC(=O)c1ccc(O)cc1
50 | 1.7 °C | O=C1NC(=O)c2c1c1c3ccccc3[nH]c1n1cncc21 [ISOGRANULATIMIDE]

target: Mitogen-activated protein kinase 3 (Homo sapiens, UniProt P27361)

Row | ΔTm | SMILES
51 | -0.4 °C | CCN1/C(=C/C(C)=O)Sc2ccc(OC)cc21
52 | 0.2 °C | Cc1ccc(NC(=O)c2cccc(N(C)C)c2)cc1NC(=O)c1ccc(O)cc1
53 | 2 °C | O=C1NC(=O)c2c1c1c3ccccc3[nH]c1n1cncc21 [ISOGRANULATIMIDE]
